In patent US7247734B2 (Vernalis (Cambridge) Limited, priority 2001, dated 2007):

target: T1, yeast HSP90 (Saccharomyces cerevisiae, UniProt P02829); experiment: Malachite green HSP90 ATPase assay; assay type: biochemical; details: ATPase IC50, activity range, ATPase assay
T1 construct: made in house; host or cells: E. coli
From the text: Two methods have been developed to measure the intrinsic ATPase activity of HSP90, using yeast HSP90 as a model system. The first method utilises a regenerating coupled enzyme assay. The second assay, based on the use of malachite green for the measurement of inorganic phosphate, was designed for high throughput screening (HTS) to identify novel HSP90 inhibitor drug candidates.
Colorimetric assays for the determination of phosphate, based on the formation of a phosphomolybdate complex, can be carried out in a few steps with inexpensive reagents and are well suited to the automation required for high throughput screening (see, e.g., Cogan et al., 1999). Enzymes that release inorganic phosphate are assayed using the reaction of the cationic dye, malachite green, with the a complex formed by a reaction of the inorganic phosphate with molybdate to generate a blue-green colour with an absorbance maximum at 610 nm (see, e.g., Baykov et al., 1988; Harder et al., 1994; Maehama et al., 2000). The method has been used in both high throughput (see, e.g., Rumsfeld et al., 2000) and ultra-high throughput screening formats (see, e.g., Layery et al., 2001) for a variety of non-HSP90 ATPases. However, this method is complicated by the non-enzymatic hydrolysis of ATP in the presence of acidic malachite green reagent, causing an increase in colour (see, e.g., Chan et al., 1986; Henkel et al., 1988). This process is mediated by molybdate and can be overcome by the addition of sodium citrate immediately after the reagent (see, e.g., Lanzetta et al., 1979; Schirmer et al., 1998; Baginski et al., 1975). This modification has been adapted to the 96-well microtitre plate assay previously described for other ATPases (see, e.g., Lanzetta et al., 1979) to produce the following protocol for HSP90 ATPase, which is suitable for high throughput screening.
Chemicals are of the highest purity commercially available and all aqueous solutions are made up in AR water. Because of the need to minimise contamination with inorganic phosphate, precautions should be taken with solutions and apparatus used in the assays. Glassware and pH meters are rinsed with double distilled or deionised water before use and, wherever possible, plastic ware should be used. Gloves are worn for all procedures. • (1) Immulon 96-well (Thermo Labsystems, Basingstoke, UK) or Cliniplate 384-well flat-bottomed polystyrene multiwell plates (Thermo Labsystems). • (2) Assay buffer of (a) 100 mM Tris-HCl, pH 7.4, (b) 20 mM KCl, (c) 6 mM MgCl2. Stored at 4° C. • (3) 0.0812% (w/v) malachite green (M 9636, Sigma Aldrich Ltd., Poole, UK). Stored at room temperature. • (4) 2.32% (w/v) polyvinyl alcohol USP (P 1097, Sigma Aldrich Ltd, Poole, UK) in boiling water (see Comment 1), allowed to cool, and stored at room temperature. • (5) 5.72% (w/v) ammonium molybdate in 6 M hydrochloric acid. Stored at room temperature. • (6) 34% (w/v) sodium citrate. Stored at room temperature. • (7) ATP, disodium salt, special quality (519979, Boehringer Mannheim, Lewes, UK). Stored at 4° C. • (8) E. coli expressed yeast HSP90 protein, purified >95% (see, e.g., Panaretou et al., 1998) and stored at −80° C. as 10 μl aliquots containing 0.5 mg of protein. Method
The following protocol was used: • (1) On the day of use, prepare the malachite green reagent from the stock solutions. Mix (a) 2 parts of malachite green, (b) 1 part of polyvinyl alcohol, (c) 1 part of ammonium molybdate, and (d) 2 parts of water. Initially, the reagent is a dark brown colour, but after standing at room temperature for about 2 h, this becomes a golden yellow colour and is ready for use. • (2) For the high throughput screening assays, the test compounds are dissolved at 200 μM in 2.0% DMSO and contained in daughter plates derived from the chemical libraries. Transfer 5 μl of each sample from the daughter plate to each well of the assay plate using automated equipment (see Comment 3). This represents a final concentration in the well of 40 μM.

T1 sequence (P02829 whole entry, looked up): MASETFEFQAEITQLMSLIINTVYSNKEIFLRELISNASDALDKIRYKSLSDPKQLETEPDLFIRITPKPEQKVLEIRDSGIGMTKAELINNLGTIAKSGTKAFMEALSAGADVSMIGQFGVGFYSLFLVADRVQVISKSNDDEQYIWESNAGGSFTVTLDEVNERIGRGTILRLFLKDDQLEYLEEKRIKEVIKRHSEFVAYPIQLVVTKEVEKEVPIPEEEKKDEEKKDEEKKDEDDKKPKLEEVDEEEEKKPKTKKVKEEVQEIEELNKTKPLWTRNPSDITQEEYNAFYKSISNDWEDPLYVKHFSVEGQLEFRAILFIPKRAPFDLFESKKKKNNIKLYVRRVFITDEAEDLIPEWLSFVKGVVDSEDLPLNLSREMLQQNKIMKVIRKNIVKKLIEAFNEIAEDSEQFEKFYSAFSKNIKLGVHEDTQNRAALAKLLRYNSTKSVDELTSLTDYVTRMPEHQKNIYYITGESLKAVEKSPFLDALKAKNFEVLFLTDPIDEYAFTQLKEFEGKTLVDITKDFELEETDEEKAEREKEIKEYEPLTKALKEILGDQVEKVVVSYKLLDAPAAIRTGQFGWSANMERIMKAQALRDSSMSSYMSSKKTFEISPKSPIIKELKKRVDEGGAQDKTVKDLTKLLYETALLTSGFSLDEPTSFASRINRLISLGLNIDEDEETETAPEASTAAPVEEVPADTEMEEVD

With `COc1ccc(-c2c(-c3cc(Cl)c(O)cc3O)n[nH]c2C(=O)NC(C)C)cc1` [Example 170, 5-(5-Chloro-2,4-dihydroxy-phenyl)-4-(4-methoxy-phenyl)-2H-pyrazole-3-carboxylic acid isopropylamide] the IC50 was under 50 µM.

same assay, conditions: Hsp90 IC50, activity class

`Oc1cc(O)c(-c2n[nH]cc2-c2ccc3c(c2)OCCO3)cc1Cl` [Example 63] and `Cc1[nH]nc(-c2cc(Cl)c(O)cc2O)c1-c1ccc2c(c1)OCCO2` [Example 109] cannot be ordered by IC50: under 10 µM for the first, under 10 µM for the second.

First: COc1ccc(-c2c(-c3cc(Cl)c(O)cc3O)n[nH]c2C)cc1 [Example 64]
Second: COc1ccc(-c2c(-c3ccc(O)cc3O)n[nH]c2C)cc1 [Example 92]
The IC50 of the first is lower: under 10 µM for the first, 10 to 100 µM for the second. The first is the more potent here.

In the case of `CCc1cc(-c2n[nH]c(C)c2-c2ccc3c(c2)OCCO3)c(O)cc1O` [Example 49], the IC50 is reported as under 10 µM.

same assay, conditions: activity class; read-out: Hsp90 IC50

`COc1ccc(-c2c(-c3cc(Cc4ccccc4)c(O)cc3O)n[nH]c2C)cc1` [Example 104, 4-benzyl-6-[4-(4-methoxy-phenyl)-5-methyl-1H-pyrazol-3-yl]-benzene-1,3-diol] and `COc1ccc(-c2c(-c3cc(CCc4ccccc4)c(O)cc3O)n[nH]c2C)cc1` [Example 95] cannot be ordered by IC50: under 10 µM for the first, under 10 µM for the second.

`Oc1ccc(-c2[nH]ncc2-c2ccc(Br)cc2)c(O)c1` [Example 56] and `Oc1ccc(-c2[nH]ncc2-c2ccccc2)c(O)c1` [Example 55] cannot be ordered by IC50: over 10 µM for the first, 10 to 100 µM for the second.

First: CCc1cc(-c2n[nH]cc2-c2ccc(OC)cc2)c(O)cc1O [Example 141]
Second: CCc1cc(-c2n[nH]cc2-c2ccc(Br)cc2)c(O)cc1O [Example 79]
The IC50 of the first is higher: 10 to 100 µM for the first, under 10 µM for the second.

`Cc1[nH]nc(-c2ccc(C#N)cc2)c1-c1ccc2c(c1)OCCO2` [Example 117] and `Cc1[nH]nc(-c2cccc(C#N)c2)c1-c1ccc2c(c1)OCCO2` [Example 118] cannot be ordered by IC50: over 10 µM for the first, over 10 µM for the second.

`CC(=O)Nc1cccc(-c2n[nH]c(C)c2-c2ccc3c(c2)OCCO3)c1` [Example 113] and `CCOC(=O)c1cccc(-c2n[nH]c(C)c2-c2ccc3c(c2)OCCO3)c1` [Example 116] cannot be ordered by IC50: over 10 µM for the first, over 10 µM for the second.

`CCc1cc(-c2n[nH]c(C(=O)O)c2-c2ncc(C)s2)c(O)cc1O` [Example 102] and `CCCc1cc(-c2n[nH]c(C)c2-c2nc3ccccc3s2)c(O)cc1O` [Example 100] fall in the same range of IC50: 10 to 100 µM for the first, 10 to 100 µM for the second.

Compared with `CCc1cc(-c2n[nH]c(C(F)(F)F)c2-c2ccccc2)c(O)cc1O` [Example 103], `Cc1[nH]nc(-c2cc(Cl)c(O)cc2O)c1-c1ccccc1` [Example 78] is lower in IC50: 10 to 100 µM for the first, under 10 µM for the second. The second is the more potent here.

`Cc1nc(-c2c[nH]nc2-c2ccc(O)cc2O)cs1` [Example 129] and `Cc1nc(-c2c[nH]nc2-c2cc(C)c(O)cc2O)cs1` [Example 90] cannot be ordered by IC50: over 10 µM for the first, 10 to 100 µM for the second.

`O=C(O)CCCOc1ccc(-c2c[nH]nc2-c2cc(Cl)c(O)cc2O)cc1` [Example 75] and `N#CCCCOc1ccc(-c2cn[nH]c2-c2cc(Cl)c(O)cc2O)cc1` [Example 61] cannot be ordered by IC50: under 10 µM for the first, under 10 µM for the second.

First: Cc1[nH]nc(-c2cc(Cl)c(O)cc2O)c1-c1ccccc1Br [Example 69]
Second: Cc1[nH]nc(-c2cc(Cl)c(O)cc2O)c1-c1ccc(Br)cc1 [Example 58]
The IC50 of the first is higher: 10 to 100 µM for the first, under 10 µM for the second.

`COc1cccc(-c2c[nH]nc2-c2cc(Cl)c(O)cc2O)c1` [Example 77] and `COc1ccc(-c2c[nH]nc2-c2cc(Cl)c(O)cc2O)cc1OC` [Example 52] cannot be ordered by IC50: under 10 µM for the first, under 10 µM for the second.

`Cc1ccc(-n2cc(-c3c[nH]nc3-c3ccc(O)cc3O)cn2)cc1` [Example 136] and `CCc1cc(-c2n[nH]cc2-c2cnn(-c3ccccc3)c2)c(O)cc1O` [Example 145] cannot be ordered by IC50: over 10 µM for the first, over 10 µM for the second.

`Cc1[nH]nc(-c2ccc(O)cc2O)c1-c1ccccc1` [Example 59] and `Cc1[nH]nc(-c2cc(Cl)c(O)c(Cl)c2O)c1-c1ccccc1` [Example 138] cannot be ordered by IC50: over 10 µM for the first, over 10 µM for the second.

Compared with `CCc1cc(-c2n[nH]cc2-c2ccc(OC)c(OC)c2)c(O)cc1O` [Example 50], `COc1ccc(-c2c[nH]nc2-c2ccc(O)cc2O)cc1OC` [Example 51] is higher in IC50: under 10 µM for the first, 10 to 100 µM for the second.

`CCc1cc(-c2[nH]nc(CCC(=O)O)c2-c2nc3ccccc3n2C)c(O)cc1O` [Example 99] and `CCCc1cc(-c2n[nH]cc2-c2ccc3c(c2)OCO3)c(O)cc1O` [Example 140] cannot be ordered by IC50: 10 to 100 µM for the first, over 10 µM for the second.

`Cc1ccc(O)c(-c2n[nH]c(C)c2-c2ccc3c(c2)OCCO3)c1` [Example 110] and `COc1ccc(-c2n[nH]cc2-c2ccc3c(c2)OCCO3)c(O)c1` [Example 122] cannot be ordered by IC50: over 10 µM for the first, over 10 µM for the second.

`CCOc1cc(O)c(-c2n[nH]cc2-c2nc(C)cs2)cc1CC` [Example 130] and `CCc1cc(-c2n[nH]cc2-c2cscn2)c(O)cc1O` [Example 91] cannot be ordered by IC50: over 10 µM for the first, 10 to 100 µM for the second.

`COc1ccc(-c2c(-c3cc(Cl)c(F)cc3O)n[nH]c2C)cc1` [Example 147] and `COc1ccc(-c2c(C)n[nH]c2-c2cnc(N)nc2)cc1` [Example 151, 5-[4-(4-Methoxy-phenyl)-5-methyl-2H-pyrazol-3-yl]-pyrimidin-2-ylamine] cannot be ordered by IC50: over 10 µM for the first, over 10 µM for the second.

Compared with `Oc1ccc(-c2n[nH]c(C(F)(F)F)c2-c2ccccc2Cl)c(O)c1` [Example 144], `Oc1cc(O)c(-c2n[nH]cc2-c2ccc(-c3ccc(F)cc3)cc2)cc1Cl` [Example 62] is lower in IC50: over 10 µM for the first, under 10 µM for the second. The second is the more potent here.

`CCOc1cccc(-c2ccc(-c3c[nH]nc3-c3cc(Cl)c(O)cc3O)cc2)c1` [Example 72] was tested, and the IC50 was under 10 µM.

same assay, conditions: activity range, ATPase assay; read-out: ATPase IC50

`OCCn1cc(-c2ccc(Br)cc2)c(-c2cc(Cl)c(O)cc2O)n1` [Example 166, 4-[4-(4-Bromo-phenyl)-1-(2-hydroxy-ethyl)-1H-pyrazol-3-yl]-6-chloro-benzene-1,3-diol] and `Cn1cc(-c2ccc(Br)cc2)c(-c2cc(Cl)c(O)cc2O)n1` [Example 161, 4-[4-(4-Bromo-phenyl)-1-methyl-1H-pyrazol-3-yl]-6-chloro-benzene-1,3-diol] cannot be ordered by IC50: over 50 µM for the first, over 50 µM for the second.

`Cc1c(-c2ccc(Br)cc2)c(-c2cc(Cl)c(O)cc2O)nn1C` [Example 163] and `Cc1c(-c2ccccc2)c(-c2cc(Cl)c(O)cc2O)nn1C` [Example 164, 4-Chloro-6-(1,5-dimethyl-4-phenyl-1H-pyrazol-3-yl)-benzene-1,3-diol] cannot be ordered by IC50: over 50 µM for the first, over 50 µM for the second.

`Cc1nc2cc(-c3c[nH]nc3-c3cc(Cl)c(O)cc3O)ccc2s1` [Example 176] and `Oc1cc(O)c(-c2n[nH]cc2-c2ccc3c(c2)CCO3)cc1Cl` [Example 173] cannot be ordered by IC50: under 50 µM for the first, under 50 µM for the second.

`Oc1cc(O)c(-c2n[nH]cc2-c2ccsc2)cc1Cl` [Example 174] and `O=C(O)c1ccc(-c2c[nH]nc2-c2cc(Cl)c(O)cc2O)cc1` [Example 182] cannot be ordered by IC50: under 50 µM for the first, under 50 µM for the second.

`COc1ccc(-c2cn(C)nc2-c2cc(Cl)c(O)cc2O)cc1OC` [Example 165] and `CCc1cc(-c2nn(C)cc2-c2ccc(OC)c(OC)c2)c(O)cc1O` [Example 162, 4-[4-(3,4-Dimethoxy-phenyl)-1-methyl-1H-pyrazol-3-yl]-6-ethyl-benzene-1,3-diol] cannot be ordered by IC50: over 50 µM for the first, over 50 µM for the second.

Compared with `COc1ccc(-c2c(-c3cc(Cl)c(O)cc3O)n[nH]c2C(=O)NCc2ccccc2)cc1` [Example 171, 5-(5-Chloro-2,4-dihydroxy-phenyl)-4-(4-methoxy-phenyl)-2H-pyrazole-3-carboxylic acid benzylamide], `COc1ccc(-c2c(-c3ccc(CO)cc3O)n[nH]c2C)cc1` [Example 183] is higher in IC50: under 50 µM for the first, over 50 µM for the second. The first is the more potent here.

Compound `Cc1[nH]nc(-c2ccc(C(=O)NCC3CCCO3)cc2)c1-c1ccc2c(c1)OCCO2` (stereo not shown) [Example 159] has an IC50 of over 50 µM.
